Data taken from patent US8877778B2, “Benzofurane compounds” (Hoffmann-La Roche Inc., priority 2010, dated 2014).

Key:
human D3 receptor = human D3 receptor (Homo sapiens (Human), UniProt P35462); assay: Radioligand binding ([3H]-spiperone) to cloned receptors expressed in HEK-293 EBNA cells; conditions: HEK293 EBNA cell membranes expressing human D3
Procedure, shortened: (§1)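 Membranes from transiently transfected HEK293 EBNA cells incubated 1 h at RT with ten compound concentrations (10 μM–0.1 nM). D2/D3: [3H]-spiperone ~0.7/0.5 nM, Tris–NaCl–Mg/Ca buffer pH 7.4; 5-HT2A: [3H]-ketanserin 1.1 nM, Tris–MgCl2–EGTA pH 7.4.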

human D2 receptor = human D2 receptor (Homo sapiens (Human), UniProt P14416); assay: as above; conditions: HEK293 EBNA cell membranes expressing human D2
Sequence of human D2 receptor (P14416 whole entry): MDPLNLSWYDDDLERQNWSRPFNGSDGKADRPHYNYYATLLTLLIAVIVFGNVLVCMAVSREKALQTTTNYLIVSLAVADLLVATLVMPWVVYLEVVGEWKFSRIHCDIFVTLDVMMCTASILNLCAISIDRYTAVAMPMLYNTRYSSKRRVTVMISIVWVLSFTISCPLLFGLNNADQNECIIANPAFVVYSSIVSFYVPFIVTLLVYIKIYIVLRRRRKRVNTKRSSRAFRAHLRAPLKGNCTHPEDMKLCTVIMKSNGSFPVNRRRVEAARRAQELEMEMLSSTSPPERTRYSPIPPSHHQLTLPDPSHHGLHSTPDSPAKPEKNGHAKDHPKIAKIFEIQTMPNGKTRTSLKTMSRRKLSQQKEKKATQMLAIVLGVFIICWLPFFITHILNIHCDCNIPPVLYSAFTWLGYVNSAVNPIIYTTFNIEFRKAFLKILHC
Procedure, shortened: as §1

human 5-HT2A receptor = human 5-HT2A receptor (Homo sapiens (Human), UniProt P28223); assay: Radioligand binding ([3H]-ketanserin) to cloned receptors expressed in HEK-293 EBNA cells; conditions: HEK293 EBNA cell membranes expressing human 5-HT2A
Sequence of human 5-HT2A receptor (P28223 whole entry): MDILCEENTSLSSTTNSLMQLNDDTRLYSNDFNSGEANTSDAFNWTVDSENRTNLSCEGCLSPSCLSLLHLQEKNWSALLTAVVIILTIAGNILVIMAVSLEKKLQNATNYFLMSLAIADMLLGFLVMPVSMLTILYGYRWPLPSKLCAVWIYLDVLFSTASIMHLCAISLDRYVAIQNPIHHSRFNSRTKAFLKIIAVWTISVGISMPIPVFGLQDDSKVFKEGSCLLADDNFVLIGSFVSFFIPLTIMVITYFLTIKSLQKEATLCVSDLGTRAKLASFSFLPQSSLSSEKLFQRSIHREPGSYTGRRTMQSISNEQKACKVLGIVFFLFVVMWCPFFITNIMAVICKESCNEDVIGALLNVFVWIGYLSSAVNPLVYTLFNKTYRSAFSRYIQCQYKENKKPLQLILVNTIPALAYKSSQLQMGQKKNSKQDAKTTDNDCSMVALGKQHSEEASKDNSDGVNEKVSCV
Procedure, shortened: as §1

Sequence of human D3 receptor (P35462 whole entry): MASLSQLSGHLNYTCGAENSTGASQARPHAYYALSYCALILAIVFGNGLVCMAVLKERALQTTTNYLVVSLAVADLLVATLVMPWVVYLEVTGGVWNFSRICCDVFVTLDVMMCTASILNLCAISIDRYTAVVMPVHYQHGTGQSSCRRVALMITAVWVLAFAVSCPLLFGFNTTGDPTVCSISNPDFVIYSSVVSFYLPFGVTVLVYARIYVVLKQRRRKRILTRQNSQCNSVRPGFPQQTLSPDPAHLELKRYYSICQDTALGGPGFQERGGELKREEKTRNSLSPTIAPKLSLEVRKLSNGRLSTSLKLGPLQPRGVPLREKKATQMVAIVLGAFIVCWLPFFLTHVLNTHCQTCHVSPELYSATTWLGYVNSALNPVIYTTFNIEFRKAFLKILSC

Structure (SMILES)	Ki (human D3 receptor) [µM]	Ki (human D2 receptor) [µM]	Ki (human 5-HT2A receptor) [µM]	melting point [°C]
CC(C)(C)CC(=O)N[C@H]1CC[C@H](CCN2CCC(c3cccc4c3CCO4)CC2)CC1 [Example 59, trans-N-(4-{2-[4-(2,3-Dihydro-benzofuran-4-yl)-piperidin-1-yl]ethyl}-cyclohexyl)-3,3-dimethyl-butyramide]	0.006	0.394	0.0541	193
O=C(CC1CCC1)N[C@H]1CC[C@H](CCN2CCC(c3cccc4c3CCO4)CC2)CC1 [Example 60, trans-2-Cyclobutyl-N-(4-{2-[4-(2,3-dihydro-benzofuran-4-yl)-piperidin-1-yl]-ethyl}-cyclohexyl)-acetamide]	0.0061	0.301	0.0444	196
O=C(N[C@H]1CC[C@H](CCN2CCC(c3cccc4c3CCO4)CC2)CC1)C1CC1(F)F (stereo partly drawn) [Example 61, 2,2-Difluoro-cyclopropanecarboxylic acid trans-(4-{2-[4-(2,3-dihydro-benzofuran-4-yl)-piperidin-1-yl]-ethyl}-cyclohexyl)-amide]	0.0096	0.236	0.0519	199
CN(C)C(=O)CCC(=O)N[C@H]1CC[C@H](CCN2CCC(c3cccc4c3CCO4)CC2)CC1 [Example 63, trans-N-(4-{2-[4-(2,3-Dihydro-benzofuran-4-yl)-piperidin-1-yl]ethyl}-cyclohexyl)-N′,N′-dimethyl-succinamide]	0.0155	1.06	0.0896	205
CC(=O)N[C@H]1CC[C@H](CCN2CCC(c3ccc(F)c4occc34)CC2)CC1 [Example 64, trans-N-(4-{2-[4-(7-Fluoro-benzofuran-4-yl)-piperidin-1-yl]-ethyl}-cyclohexyl)-acetamide]	0.00972	0.404	0.0333	203.5
O=C(N[C@H]1CC[C@H](CCN2CCC(c3ccc(F)c4occc34)CC2)CC1)C1CCOCC1 [Example 65, Tetrahydro-pyran-4-carboxylic acid trans-(4-{2-[4-(7-fluoro-benzofuran-4-yl)-piperidin-1-yl]-ethyl}-cyclohexyl)-amide]	0.034	0.361	0.0116	208
O=C(CC1CCOCC1)N[C@H]1CC[C@H](CCN2CCC(c3ccc(F)c4occc34)CC2)CC1 [Example 66, trans-N-(4-{2-[4-(7-Fluoro-benzofuran-4-yl)-piperidin-1-yl]-ethyl}-cyclohexyl)-2-(tetrahydro-pyran-4-yl)-acetamide]	0.0201	0.616	0.0309	187.5
COCCC(=O)N[C@H]1CC[C@H](CCN2CCC(c3ccc(F)c4occc34)CC2)CC1 [Example 67, trans-N-(4-{2-[4-(7-Fluoro-benzofuran-4-yl)-piperidin-1-yl]-ethyl}-cyclohexyl)-3-methoxy-propionamide]	0.00928	0.613	0.031	177
O=C(N[C@H]1CC[C@H](CCN2CCC(c3cccc4c3CCO4)CC2)CC1)c1ccc(-n2cccn2)cc1 [Example 68, trans-N-(4-{2-[4-(2,3-Dihydro-benzofuran-4-yl)-piperidin-1-yl]-ethyl}-cyclohexyl)-4-pyrazol-1-yl-benzamide]	0.00865	1.7	0.0274	258.5
Cc1nc(-c2ccc(C(=O)N[C@H]3CC[C@H](CCN4CCC(c5cccc6c5CCO6)CC4)CC3)cc2)no1 [Example 69, trans-N-(4-{2-[4-(2,3-Dihydro-benzofuran-4-yl)-piperidin-1-yl]-ethyl}-cyclohexyl)-4-(5-methyl-[1,2,4]oxadiazol-3-yl)-benzamide]	0.0149	3.73	0.0545	256.5
